Measured values published in patent US20220002283A1 (Mylan Laboratories Limited, priority 2019, published 2022).

How the values were obtained:
[1] = Solid state stability, PXRD; type: physicochemical; parameters: key: X: crystalline; S: stable
Description: Thus, the X-ray diffraction patterns of the co-crystals of provided herein were measured on a PANalytical X'PertPRO Powder X-ray diffractometer equipped with goniometer of θ/θ configuration and X'celerator detector. The Cu-anode X-ray tube was operated at 45 kV and 40 mA. The experiments were conducted over the 2θ range of 2.0°-50.0°, 0.030° step size and 189.865 time per step (seconds) and all the co-crystals were characterized with above mentioned method.
(§1) The samples were analyzed by PXRD, assay and related substances by HPLC.

[2] = Solid state stability, HPLC meloxicam co-crystal assay; type: physicochemical; conditions: for M %: Meloxicam Assay % / A %: Co-former Assay %: samples as per Examples 1, 2, 3
Description: • Instrumentation: Waters HPLC system having 2695 model pump having UV/PDA detector with Empower chromatography software or its equivalent. • Column: (A) Unison UK C18 column; (B) YMC Trait C18 EXRS Column, 250×4.6 mm, 5.0 micron; (C) Water Atlantis T3, 250×4.6 mm, 5 micron. • Mobile Phase: (A) methanol-acetonitrile-dipotassium phosphate buffer; or (B) acetonitrile-Sodium sulfate buffer solution • Detection wavelength: 210 nm and 360 nm
as §1

[3] = Solid state stability, impurities by HPLC; type: physicochemical
Description: A Zorbax Eclipse XDB C18 column was used with the mobile phase of methanol-acetonitrile-10 mM phosphate buffer solution at the detection wavelength of 350 nm and 260 nm. • Instrumentation: Waters HPLC system having 2695 model pump having UV/PDA detector with Empower chromatography software or its equivalent. • Chemicals: Dipotassium hydrogen phosphate, orthophosphoric acid, acetonitrile, water, sodium hydroxide, methanol. • Column: Zorbax Eclipse XDB C18 column, 250×4.6 mm, 5 μm. • Elution: Gradient. • Flow rate: 0.8 mL/min.
as §1

[4] = Solid state stability, physical and chemical (PXRD and HPLC), overall finding
Description: as §1

[5] = cited from earlier work
[6] = 25° C./60% RH, 1 mo., samples as per Examples 1, 2, 3
[7] = 25° C./60% RH, 2 mo., samples as per Examples 1, 2, 3
[8] = 25° C./60% RH, 3 mo., samples as per Examples 1, 2, 3
[9] = 25° C./60% RH, Initial, samples as per Examples 1, 2, 3
[10] = 40° C./75% RH, 1 mo., samples as per Example 7, 17 or 14
[11] = 40° C./75% RH, 1 mo., samples as per Examples 1, 2, 3
[12] = 40° C./75% RH, 2 mo., samples as per Example 7, 17 or 14
[13] = 40° C./75% RH, 2 mo., samples as per Examples 1, 2, 3
[14] = 40° C./75% RH, 3 mo., samples as per Examples 1, 2, 3
[15] = 40° C./75% RH, Initial, samples as per Example 7, 17 or 14
[16] = 40° C./75% RH, Initial, samples as per Examples 1, 2, 3
[17] = 40° C./75% RH and 25° C./60% RH, three months
[18] = 25° C./60% RH, 1 mo., samples as per Example 7 or 17
[19] = 25° C./60% RH, 2 mo., samples as per Example 7 or 17
[20] = 25° C./60% RH, 3 mo., samples as per Example 7 or 17
[21] = 25° C./60% RH, Initial, samples as per Example 7 or 17
[22] = 40° C./75% RH, 3 mo., samples as per Example 7 or 17

In the case of `Cc1cnc(NC(=O)C2=C(O)c3ccccc3S(=O)(=O)N2C)s1.O=C(O)c1ccccc1O` [Meloxicam:Salicylic acid Form III (1:1)], the PXRD [1, 6] is reported as “S”, the PXRD [1, 7] is reported as “S” and the PXRD [1, 8] is reported as “S”. For the same molecule, the PXRD [1, 9] was “X”, the PXRD [1, 10] was “S” and the PXRD [1, 11] was “S”. For the same molecule, the PXRD [1, 12] was “S”, the PXRD [1, 13] was “S” and the PXRD [1, 14] was “S”. The PXRD [1, 15] was “X”, the PXRD [1, 16] was “X” and the “M %: Meloxicam Assay %” value ([2]; 25° C./60% RH, 1 mo.) was 71.7%. The “A %: Co-former Assay %” value ([2]; 25° C./60% RH, 2 mo.) was 27.2%, the “M %: Meloxicam Assay %” value ([2]; 25° C./60% RH, 2 mo.) was 72.0% and the “A %: Co-former Assay %” value ([2]; 25° C./60% RH, 3 mo.) was 27.6%. For the same molecule, the “M %: Meloxicam Assay %” value ([2]; 25° C./60% RH, 3 mo.) was 72.1%, the “A %: Co-former Assay %” value ([2]; 25° C./60% RH, Initial) was 27.5% and the “M %: Meloxicam Assay %” value ([2]; 25° C./60% RH, Initial) was 71.3%. The “Assay (% by HPLC) M % (Meloxicam Assay %)” value (from here on “Assay (% by HPLC) M %”) [2, 10] was 71.4%, the “M %: Meloxicam Assay %” value ([2]; 40° C./75% RH, 1 mo.) was 72.0% and the “Assay (% by HPLC) M %” value [2, 12] was 71.2%. The “A %: Co-former Assay %” value ([2]; 40° C./75% RH, 2 mo.) was 27.0%, the “M %: Meloxicam Assay %” value ([2]; 40° C./75% RH, 2 mo.) was 71.5% and the “A %: Co-former Assay %” value ([2]; 40° C./75% RH, 3 mo.) was 27.4%. For the same molecule, the “M %: Meloxicam Assay %” value ([2]; 40° C./75% RH, 3 mo.) was 71.8%, the “Assay (% by HPLC) M %” value [2, 15] was 71.1% and the “A %: Co-former Assay %” value ([2]; 40° C./75% RH, Initial) was 27.5%. For the same molecule, the “M %: Meloxicam Assay %” value ([2]; 40° C./75% RH, Initial) was 71.3%, the “Impurities (% w/w, by HPLC) Ethyl Meloxicam” value [3, 10] was 0.003 % w/w and the “Impurities (% w/w, by HPLC) Other* (any other individual impurity)” value (from here on “Impurities (% w/w, by HPLC) Other*”) [3, 10] was 0.01 % w/w. For the same molecule, the “Impurities (% w/w, by HPLC) Total” value [3, 10] was 0.04 % w/w, the “Impurities (% w/w, by HPLC) Methyl Meloxicam” value [3, 12] was 0.001 % w/w and the “Impurities (% w/w, by HPLC) Other*” value [3, 12] was 0.01 % w/w. For the same molecule, the “Impurities (% w/w, by HPLC) Total” value [3, 12] was 0.01 % w/w, the “Impurities (% w/w, by HPLC) Other*” value [3, 15] was 0.01 % w/w and the “Impurities (% w/w, by HPLC) Total” value [3, 15] was 0.01 % w/w. The “Meloxicam Related Compounds A, B, C, and D by HPLC” value ([3]; any timepoint from initiation up to 2 months, 40° C./75% RH) was “^#Meloxicam Related Compounds A, B, C, and D (see Table 4a) were not detectable at any timepoint from initiation up to 2 months”, the “physical and chemical stability” value [4, 17] was “physically and chemically stable” and the “physical and chemical stability” value ([4]; 40° C./75% RH, at least 2 months) was “physically and chemically stable”.
With `Cc1cnc(NC(=O)C2=C(O)c3ccccc3S(=O)(=O)N2C)s1.Cc1cnc(NC(=O)C2=C(O)c3ccccc3S(=O)(=O)N2C)s1.O=C(O)CCC(=O)O` [Meloxicam:Succinic acid (2:1)] the PXRD [1, 18] was “S”, the PXRD [1, 19] was “S” and the PXRD [1, 20] was “S”. The PXRD [1, 21] was “X”, the PXRD [1, 10] was “S” and the PXRD [1, 12] was “S”. The PXRD [1, 22] was “S”, the PXRD [1, 15] was “X” and the “Assay (% by HPLC) M %” value [2, 18] was 85.2%. For the same molecule, the “Assay (% by HPLC) M %” value [2, 19] was 85.1%, the “Assay (% by HPLC) M %” value [2, 20] was 84.8% and the “Assay (% by HPLC) M %” value [2, 21] was 85.1%. The “Assay (% by HPLC) M %” value [2, 10] was 84.8%, the “Assay (% by HPLC) M %” value [2, 12] was 83.9% and the “Assay (% by HPLC) M %” value [2, 22] was 84.9%. For the same molecule, the “Assay (% by HPLC) M %” value [2, 15] was 85.1%, the “Impurities (% w/w, by HPLC) Ethyl Meloxicam” value [3, 18] was “BDL” and the “Impurities (% w/w, by HPLC) Methyl Meloxicam” value [3, 18] was 0.01 % w/w. For the same molecule, the “Impurities (% w/w, by HPLC) Other*” value [3, 18] was 0.03 % w/w, the “Impurities (% w/w, by HPLC) Total” value [3, 18] was 0.14 % w/w and the “Impurities (% w/w, by HPLC) Ethyl Meloxicam” value [3, 19] was “BDL”. The “Impurities (% w/w, by HPLC) Methyl Meloxicam” value [3, 19] was “BDL”, the “Impurities (% w/w, by HPLC) Other*” value [3, 19] was 0.03 % w/w and the “Impurities (% w/w, by HPLC) Total” value [3, 19] was 0.13 % w/w. The “Impurities (% w/w, by HPLC) Ethyl Meloxicam” value [3, 20] was “BDL”, the “Impurities (% w/w, by HPLC) Methyl Meloxicam” value [3, 20] was “BDL” and the “Impurities (% w/w, by HPLC) Other*” value [3, 20] was 0.02 % w/w. The “Impurities (% w/w, by HPLC) Total” value [3, 20] was 0.13 % w/w, the “Impurities (% w/w, by HPLC) Ethyl Meloxicam” value [3, 21] was “BDL” and the “Impurities (% w/w, by HPLC) Methyl Meloxicam” value [3, 21] was 0.01 % w/w. For the same molecule, the “Impurities (% w/w, by HPLC) Other*” value [3, 21] was 0.03 % w/w, the “Impurities (% w/w, by HPLC) Total” value [3, 21] was 0.06 % w/w and the “Impurities (% w/w, by HPLC) Ethyl Meloxicam” value [3, 10] was “BDL”. The “Impurities (% w/w, by HPLC) Methyl Meloxicam” value [3, 10] was 0.01 % w/w, the “Impurities (% w/w, by HPLC) Other*” value [3, 10] was 0.03 % w/w and the “Impurities (% w/w, by HPLC) Total” value [3, 10] was 0.14 % w/w. For the same molecule, the “Impurities (% w/w, by HPLC) Ethyl Meloxicam” value [3, 12] was “BDL”, the “Impurities (% w/w, by HPLC) Methyl Meloxicam” value [3, 12] was “BDL” and the “Impurities (% w/w, by HPLC) Other*” value [3, 12] was 0.03 % w/w. For the same molecule, the “Impurities (% w/w, by HPLC) Total” value [3, 12] was 0.12 % w/w, the “Impurities (% w/w, by HPLC) Ethyl Meloxicam” value [3, 22] was “BDL” and the “Impurities (% w/w, by HPLC) Methyl Meloxicam” value [3, 22] was “BDL”. The “Impurities (% w/w, by HPLC) Other*” value [3, 22] was 0.01 % w/w, the “Impurities (% w/w, by HPLC) Total” value [3, 22] was 0.08 % w/w and the “Impurities (% w/w, by HPLC) Ethyl Meloxicam” value [3, 15] was “BDL”. For the same molecule, the “Impurities (% w/w, by HPLC) Methyl Meloxicam” value [3, 15] was 0.01 % w/w, the “Impurities (% w/w, by HPLC) Other*” value [3, 15] was 0.03 % w/w and the “Impurities (% w/w, by HPLC) Total” value [3, 15] was 0.06 % w/w. For the same molecule, the “Meloxicam Related Compounds A, B, C, and D by HPLC” value ([3]; any timepoint from initiation up to 3 months, 40° C./75% RH and 25° C./60% RH) was “^#Meloxicam Related Compounds A, B, C, and D (see Table 4a) were not detectable at any timepoint from initiation up to 3 months” and the “physical and chemical stability” value [4, 17] was “physically and chemically stable”.
In the case of `O=C(O)c1ccc(O)cc1` [4-Hydroxybenzoic acid], the “pKa (co-former)” value [5] is given as 4.58 and the pKa (physchem) is given as -0.38.
With `CC(=O)Oc1ccccc1C(=O)O.Cc1cnc(NC(=O)C2=C(O)c3ccccc3S(=O)(=O)N2C)s1` [Meloxicam:Acetylsalicylic acid (1:1)] the PXRD [1, 6] was “S”, the PXRD [1, 7] was “S” and the PXRD [1, 8] was “S”. For the same molecule, the PXRD [1, 9] was “X”, the PXRD [1, 11] was “S” and the PXRD [1, 13] was “S”. The PXRD [1, 14] was “S”, the PXRD [1, 16] was “X” and the “A %: Co-former Assay %” value ([2]; 25° C./60% RH, 1 mo.) was 33.4%. For the same molecule, the “M %: Meloxicam Assay %” value ([2]; 25° C./60% RH, 1 mo.) was 66.0%, the “A %: Co-former Assay %” value ([2]; 25° C./60% RH, 2 mo.) was 33.0% and the “M %: Meloxicam Assay %” value ([2]; 25° C./60% RH, 2 mo.) was 66.0%. For the same molecule, the “A %: Co-former Assay %” value ([2]; 25° C./60% RH, 3 mo.) was 33.0%, the “M %: Meloxicam Assay %” value ([2]; 25° C./60% RH, 3 mo.) was 65.7% and the “A %: Co-former Assay %” value ([2]; 25° C./60% RH, Initial) was 33.6%. For the same molecule, the “M %: Meloxicam Assay %” value ([2]; 25° C./60% RH, Initial) was 65.7%, the “A %: Co-former Assay %” value ([2]; 40° C./75% RH, 1 mo.) was 33.4% and the “M %: Meloxicam Assay %” value ([2]; 40° C./75% RH, 1 mo.) was 65.9%. For the same molecule, the “A %: Co-former Assay %” value ([2]; 40° C./75% RH, 2 mo.) was 32.8%, the “M %: Meloxicam Assay %” value ([2]; 40° C./75% RH, 2 mo.) was 65.8% and the “A %: Co-former Assay %” value ([2]; 40° C./75% RH, 3 mo.) was 33.0%. For the same molecule, the “M %: Meloxicam Assay %” value ([2]; 40° C./75% RH, 3 mo.) was 65.4%, the “A %: Co-former Assay %” value ([2]; 40° C./75% RH, Initial) was 33.6% and the “M %: Meloxicam Assay %” value ([2]; 40° C./75% RH, Initial) was 65.7%. The “physical and chemical stability” value [4, 17] was “physically and chemically stable”.
